# From PMC9526870 (iScience, 2022)
# Tested on: SARS-CoV-2
# Assay type: cell-based
structure (smiles),measurement,value
CCC(CC)COC(=O)[C@H](C)N[P@](=O)(OC[C@H]1O[C@@](C#N)(c2ccc3c(N)ncnn23)[C@H](O)[C@@H]1O)Oc1ccccc1 [remdesivir],SARS-CoV-2 fluorescence signal in host cells (in words),depletion of the SARS-CoV-2 fluorescence signal
